Drawing on ChEMBL document CHEMBL1909530, “Computational techniques are valuable tools for the discovery of protein-protein interaction inhibitors: the 14-3-3σ case” (Bioorg Med Chem Lett, 2011), this text covers inhibition, LD50 and Kd for four compounds.

Numbering of substitutions follows the chain as printed. The source made the active and inactive calls. The rule behind the calls is not given here.

Test [1] concerns the target T1, 14-3-3 protein sigma (Homo sapiens) (UniProt P31947).
T1 sequence (whole entry): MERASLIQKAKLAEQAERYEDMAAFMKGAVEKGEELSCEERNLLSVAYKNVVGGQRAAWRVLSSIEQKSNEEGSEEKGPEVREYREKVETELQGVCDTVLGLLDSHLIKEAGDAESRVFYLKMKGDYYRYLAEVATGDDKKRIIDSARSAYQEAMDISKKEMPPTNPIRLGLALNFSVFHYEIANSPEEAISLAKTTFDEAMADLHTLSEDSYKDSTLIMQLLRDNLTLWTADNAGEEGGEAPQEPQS
Conditions: BaF3, 1 uM.
Description: Inhibition of 14-3-3sigma in human Ba/F3 cells expressing wild type Bcr-Abl construct assessed as release of full-length c-Abl from cytoplasmic complex with 14-3-3sigma at 1 uM after 24 hrs by immunoprecipitation/immunoblot technique

Test [2] has as its target T1, 14-3-3 protein sigma (Homo sapiens). Nature of the test: Inhibition of 14-3-3sigma binding domain in human Ba/F3 cells expressing imatibib-sensitive wild type Bcr-Abl construct assessed as inhibition of 14-3-3sigma-c-Abl interaction. Format: cell-based. The following applies: BaF3.
The target is the same in test [3]. The experiment in a line: Inhibition of 14-3-3sigma binding domain in human Ba/F3 cells expressing imatibib-resistant Bcr-Abl T315I mutant construct assessed as inhibition of 14-3-3sigma-c-Abl interaction. Format: cell-based. Conditions: BaF3.
The target is the same in test [4]. Nature of the test: Inhibition of 14-3-3sigma in human Ba/F3 cells expressing imatinib-sensitive wild type Bcr-Abl construct assessed as release of full-length c-Abl from cytoplasmic complex with 14-3-3sigma at 5 uM after 24 hrs by immunoprecipitation/immunoblot technique. Conditions: BaF3. Format: cell-based. A general note: Immunoblotting shows a protein as a band on a membrane.

The next test has as its target T2, 14-3-3 protein sigma (Homo sapiens, UniProt P31947).
T2 sequence (P31947 whole entry): T1 sequence (whole entry)
The experiment in a line: Binding affinity to histidine-tagged human recombinant 14-3-3sigma by transferred NOESY analysis.

In test [5] the target is T1, 14-3-3 protein sigma (Homo sapiens). Nature of the test: Inhibition of 14-3-3sigma in human Ba/F3 cells expressing imatinib-sensitive wild type Bcr-Abl construct assessed as nuclear import of full-length c-Abl at 5 uM after 24 hrs by immunoprecipitation/immunoblot technique. Conditions: BaF3. Format: cell-based.
For test [6] the target is unchanged. Nature of the test: Inhibition of 14-3-3sigma in human Ba/F3 cells expressing imatinib-sensitive wild type Bcr-Abl construct assessed as relocation of full-length c-Abl to mitochondrial membranes at 5 uM after 24 hrs by immunoprecipitation/immunoblot technique. Format: cell-based. The following applies: BaF3.
Test [7] shares this target. Nature of the test: Inhibition of 14-3-3sigma in human Ba/F3 cells expressing imatinib-sensitive wild type Bcr-Abl construct assessed as cleaved c-Abl at mitochondrial membranes at 5 uM after 24 hrs by immunoprecipitation/immunoblot technique. Format: cell-based. Conditions: BaF3.
Test [8] has the same target. The experiment in a line: Inhibition of 14-3-3sigma in human Ba/F3 cells expressing imatinib-sensitive wild type Bcr-Abl construct assessed as cell survival. Format: cell-based. The following applies: BaF3.
The target in test [9] is T3, 14-3-3 protein sigma (Mus musculus) (UniProt O70456).
T3 sequence (whole entry): T1 sequence (whole entry) with G28S, R82K, Q93R, E110G, N234S, Q244E
Nature of the test: Inhibition of 14-3-3sigma in mouse 32D cells expressing imatinib-sensitive wild type Bcr-Abl construct assessed as cell survival. Format: cell-based.

Take `Cc1ccc(NC(=O)c2ccc(CN3CCN(C)CC3)cc2)cc1Nc1nccc(-c2cccnc2)n1`: the inhibition entry in test [1] was “Active”.

Regarding `Cc1c(NC(=O)c2cc(C(=O)O)ccc2C(=O)O)c(=O)n(-c2ccccc2)n1C`, the LD50 came to 1.04 µM in test [2] and 1.47 µM in test [3].

One may read the Kd as the equilibrium constant for the complex coming apart. For the compound `CCCCCCOC(=O)c1ccc(Nc2c([N+](=O)[O-])cc(C(=O)O)cc2[N+](=O)[O-])cc1`, the inhibition entry in [4], in [5], in [6] and in [7] was “Active” each time. In addition, on 14-3-3 protein sigma, the Kd is over 1 µM. In addition, the values for the LD50 in [2] and in [3] were 1.41 µM and 1.7 µM, respectively.

As to `Cc1ccc(-c2cc(-c3ccccc3)nc(N/N=C/c3cc([N+](=O)[O-])ccc3O)n2)cc1`, the LD50 was 0.65 µM in [8], 0.65 µM in [2] and 2.84 µM in [9].
